Data on 18 compounds can be found in paper PMC5676022, “Pyrrolyl Pyrazoline Carbaldehydes as Enoyl-ACP Reductase Inhibitors: Design, Synthesis and Antitubercular Activity” (The Open Medicinal Chemistry Journal, 2017).

Broadly, the melting point is the temperature of the solid-liquid transition. The term MIC denotes the least concentration at which growth counts as inhibited. For orientation: IC50 means the concentration that inhibits the measured activity by half. Low values mean greater potency in that assay, high ones weaker potency in that assay.

Converted amounts (≈) assume the structure as drawn.

One data set relates to M. tuberculosis H37Rv. The data set is described as follows: Microplate alamar blue assay (MABA), antitubercular activity. The format is cell-based, Mycobacterium tuberculosis. The conditions noted are these: 5 days at 37 C, lowest concentration preventing colour change blue to pink; for MIC: Mycobacterium tuberculosis, H37RV, 120 h. Background: Alamar Blue is a resazurin reagent that responds to reducing activity.

Data set [1] relates to human lung cancer cell line A549. Description: MTT-based cytotoxicity assay. The format is cell-based. The conditions noted are these: for cytotoxicity towards A549 (in words): A549, up to 100 µg/mL, compared to paclitaxel; for IC50: Homo sapiens, A549, MTT, up to 100 µg/mL, average of three independent experiments. The protocol: Cellular conversion of MTT [3-(4,5-dimethylthiazo-2-yl)-2,5-diphenyl-tetrazolium bromide] into a formazan product was used to estimate cytotoxic activity (IC50) of some of the compounds against cell-line A549 (lung adenocarcinoma) up to concentrations of 100 µg/mL using 5×10^3cells/well in a 96-well flat-bottom micro plate and maintained at 37 °C in 95% humidity and 5% CO2 for overnight using paclitaxel as the positive control.
Certain therapeutic properties are to be determined to examine the antimycobacterial potential of a drug. Toxicity is one of these criteria.
On the technique in general: Tetrazolium dyes change colour on reduction, which living cells bring about.

For the compound `O=CN1N=C(c2ccc(-n3cccc3)cc2)CC1c1ccccc1` (stereo not shown) [Compound 4a, 3-(4-(1H-Pyrrol-1-yl) Phenyl)-5-Phenyl-4,5-Dihydro-1H-Pyrazole-1-Carbaldehydes], the melting point was in the range of 178 to 180 °C. The compound also showed an MIC against M. tuberculosis H37Rv of 100 mg/L (≈ 317 µM).

With `O=CN1N=C(c2ccc(-n3cccc3)cc2)CC1c1ccc(Cl)cc1` (stereo not shown) [Compound 4b, (4-(1H-Pyrrol-1-yl) Phenyl)-5-(4-Chlorophenyl)-4,5-Dihydro-1H-Pyrazole-1-Carbaldehyde], the melting point is 168 to 170 °C. For the same compound, in data set [1], the “cytotoxicity towards A549 (in words)” value is on record as “moderate cytotoxicity” and the IC50 is 75.6 mg/L (≈ 216 µM). In the data set with M. tuberculosis H37Rv, this compound yielded an MIC of 12.5 mg/L (≈ 35.7 µM).

For `O=CN1N=C(c2ccc(-n3cccc3)cc2)CC1c1cccc(Cl)c1Cl` (stereo not shown) [Compound 4c, (4-(1H-pyrrol-1-yl)phenyl)-5-(2,3-Dichlorophenyl)-4,5-Dihydro-1H-Pyrazole-1-Carbaldehyde], the melting point was in the range of 163 to 165 °C. In addition, 12.5 mg/L (≈ 32.5 µM) was the least that counted as inhibitory against M. tuberculosis H37Rv (MIC).

On to `O=CN1N=C(c2ccc(-n3cccc3)cc2)CC1c1ccc(Cl)cc1Cl` (stereo not shown) [Compound 4d, (4-(1H-pyrrol-1-yl)Phenyl)-5-(2,4-Dichlorophenyl)-4,5-Dihydro-1H-Pyrazole-1-Carbaldehyde], for which the melting point fell in the range of 228 to 230 °C. The minimum inhibitory concentration (MIC) against M. tuberculosis H37Rv came out at 25 mg/L (≈ 65.1 µM).

For the compound `O=CN1N=C(c2ccc(-n3cccc3)cc2)CC1c1c(Cl)cccc1Cl` (stereo not shown) [Compound 4e, (4-(1H-pyrrol-1-yl)Phenyl)-5-(2,6-Dichlorophenyl)-4,5-Dihydro-1H-Pyrazole-1-Carbaldehyde], the melting point was 208 to 210 °C. Moreover, in the data set on M. tuberculosis H37Rv, the MIC came out at 25 mg/L (≈ 65.1 µM).

Consider `Cc1ccc(C2CC(c3ccc(-n4cccc4)cc3)=NN2C=O)cc1` (stereo not shown) [Compound 4f, (4-(1H-pyrrol-1-yl)Phenyl)-5-(p-Tolyl)-4,5-Dihydro-1H-Pyrazole-1-Carbaldehyde], for which the melting point lay within 148 to 150 °C. In the data set on M. tuberculosis H37Rv, this compound gave an MIC of 25 mg/L (≈ 75.9 µM).

`COc1ccc(C2CC(c3ccc(-n4cccc4)cc3)=NN2C=O)cc1` (stereo not shown) [Compound 4g, (4-(1H-pyrrol-1-yl)phenyl)-5-(4-Methoxyphenyl)-4,5-Dihydro-1H-Pyrazole-1-Carbaldehyde] registered a melting point of 112 to 114 °C. In the data set on M. tuberculosis H37Rv, the “MIC values M. tuberculosis H37Rv” value turned out to be 6.25 mg/L (≈ 18.1 µM) and the MIC was 6.25 mg/L (≈ 18.1 µM).

Consider `COc1cccc(C2CC(c3ccc(-n4cccc4)cc3)=NN2C=O)c1` (stereo not shown) [Compound 4h, (4-(1H-Pyrrol-1-yl)Phenyl)-5-(3-Methoxyphenyl)-4,5-Dihydro-1H-Pyrazole-1-Carbaldehyde], for which the melting point was 158 to 160 °C. For the same compound, in data set [1], the “cytotoxicity towards A549 (in words)” value is reported as “moderate cytotoxicity” and the IC50 is 76.5 mg/L (≈ 222 µM). In addition, in the data set on M. tuberculosis H37Rv, the “MIC values M. tuberculosis H37Rv” value stood at 6.25 mg/L (≈ 18.1 µM) and inhibition of growth (MIC) required 6.25 mg/L (≈ 18.1 µM).

As for `COc1ccc(C2CC(c3ccc(-n4cccc4)cc3)=NN2C=O)c(OC)c1` (stereo not shown) [Compound 4i, (4-(1H-Pyrrol-1-yl)Phenyl)-5-(2,4-Dimethoxyphenyl)-4,5-Dihydro-1H-Pyrazole-1-Carbaldehyde], the melting point lay within 160 to 162 °C. Moreover, in data set [1], the “cytotoxicity towards A549 (in words)” value is given as “moderate cytotoxicity” and the IC50 is 73.3 mg/L (≈ 195 µM). Moreover, in the data set with M. tuberculosis H37Rv, the “MIC values M. tuberculosis H37Rv” value amounted to 3.125 mg/L (≈ 8.32 µM) and the MIC is 3.12 mg/L (≈ 8.32 µM).

Take `COc1ccc(C2CC(c3ccc(-n4cccc4)cc3)=NN2C=O)cc1OC` (stereo not shown) [Compound 4j, (4-(1H-Pyrrol-1-yl) Phenyl)-5-(3,4-Dimethoxyphenyl)-4,5-Dihydro-1H-Pyrazole-1-Carbaldehyde]: the melting point was in the range of 133 to 135 °C. Besides, in data set [1], the “cytotoxicity towards A549 (in words)” value is reported as “moderate cytotoxicity” and the IC50 was determined as 70.4 mg/L (≈ 187 µM). Besides, the MIC against M. tuberculosis H37Rv amounted to 12.5 mg/L (≈ 33.3 µM).

In the data set with M. tuberculosis H37Rv, `O=CN1N=C(c2ccc(-n3cccc3)cc2)CC1c1ccc(F)cc1` (stereo not shown) [Compound 4k, (4-(1H-Pyrrol-1-yl)phenyl)-5-(4-Fluorophenyl)-4,5-Dihydro-1H-Pyrazole-1-Carbaldehyde] displayed an MIC of 12.5 mg/L (≈ 37.5 µM).

In the case of `CC(C)c1ccc(C2CC(c3ccc(-n4cccc4)cc3)=NN2C=O)cc1` (stereo not shown) [Compound 4l, (4-(1H-Pyrrol-1-yl)Phenyl)-5-(4-Isopropylphenyl)-4,5-Dihydro-1H-Pyrazole-1-Carbaldehyde], the melting point lay within 140 to 142 °C. Also, in data set [1], the “cytotoxicity towards A549 (in words)” value is listed as “moderate cytotoxicity” and the IC50 is 71.1 mg/L (≈ 199 µM). In addition, the lowest concentration to inhibit growth in the data set with M. tuberculosis H37Rv (MIC) was 100 mg/L (≈ 280 µM).

With `O=CN1N=C(c2ccc(-n3cccc3)cc2)CC1c1cccc(Br)c1` (stereo not shown) [Compound 4m, (4-(1H-Pyrrol-1-yl)Phenyl)-5-(3-Bromophenyl)-4,5-Dihydro-1H-Pyrazole-1-Carbaldehyde], the melting point lay within 168 to 170 °C. Besides, in data set [1], the “cytotoxicity towards A549 (in words)” value is “moderate cytotoxicity” and the IC50 was found to be 76 mg/L (≈ 193 µM). Also, inhibition of growth against M. tuberculosis H37Rv (MIC) required 12.5 mg/L (≈ 31.7 µM).

For the compound `O=CN1N=C(c2ccc(-n3cccc3)cc2)CC1c1cccc(Oc2ccccc2)c1` (stereo not shown) [Compound 4n, (4-(1H-pyrrol-1-yl)Phenyl)-5-(3-Phenoxyphenyl)-4,5-Dihydro-1H-Pyrazole-1-Carbaldehyde], the melting point was in the range of 128 to 130 °C. Moreover, in data set [1], the “cytotoxicity towards A549 (in words)” value is listed as “moderate cytotoxicity” and the IC50 was 72.9 mg/L (≈ 179 µM). The same compound had a minimal inhibitory concentration (MIC) in the data set on M. tuberculosis H37Rv of 12.5 mg/L (≈ 30.7 µM).

`O=CN1N=C(c2ccc(-n3cccc3)cc2)CC1c1ccco1` (stereo not shown) [Compound 4o, (4-(1H-Pyrrol-1-yl)phenyl)-5-(Furan-2-yl)-4,5-Dihydro-1H-pyrazole-1-Carbaldehyde] showed a melting point of 152 to 154 °C. In the data set on M. tuberculosis H37Rv, this compound displayed an MIC of 50 mg/L (≈ 164 µM).

With `CC(=O)O[C@H]1C(=O)[C@@]2(C)[C@H]([C@H](OC(=O)c3ccccc3)[C@]3(O)C[C@H](OC(=O)[C@H](O)[C@@H](NC(=O)c4ccccc4)c4ccccc4)C(C)=C1C3(C)C)[C@]1(OC(C)=O)CO[C@@H]1C[C@@H]2O` [paclitaxel, reference compound], the 50% inhibitory concentration (IC50) in data set [1] is 47.6 mg/L (≈ 55.8 µM).

Turning to `NC(=O)c1cnccn1` [pyrazinamide, reference compound], the MIC against M. tuberculosis H37Rv was 3.12 mg/L (≈ 25.4 µM).

In the data set on M. tuberculosis H37Rv, `[H]/N=C(/N)N[C@H]1[C@H](O)[C@@H](O)[C@H](O[C@@H]2O[C@@H](C)[C@](O)(C=O)[C@H]2O[C@@H]2O[C@@H](CO)[C@H](O)[C@@H](O)[C@@H]2NC)[C@@H](N/C(N)=N\[H])[C@@H]1O` [streptomycin, reference compound] yielded an MIC of 6.25 mg/L (≈ 10.7 µM).
